This note sets out measurements from paper PMC8468039, “Development of New Meridianin/Leucettine-Derived Hybrid Small Molecules as Nanomolar Multi-Kinase Inhibitors with Antitumor Activity” (Biomedicines, 2021).

For one data set, the target named is T1, FMS (Homo sapiens, UniProt P07333).
T1 construct: purchased Reaction Biology Corp
The experiment in a line: In vitro kinase inhibition assay (HotSpot, Reaction Biology). It is filed as biochemical. The following applies: single dose of 10 µM; 10 µM ATP as printed; read-out: Percent Inhibition, FMS. As to the method: (§1) The in vitro kinase inhibition assay was carried out by Reaction Biology Corp. (Reaction Biology Corp., Chester, PA, USA) Kinase HotSpot^SM service (http://www.reactionbiology.com, accessed on 15 January 2021), following the previously reported methods. (For details, see Supplementary Material).
(§2) As mentioned in the introduction, to get insights about the kinase inhibition profile of the hybrid small molecule 5a, an in vitro screening over a panel of 14 cancer-related kinases was carried out. Accordingly, 10 µM concentrations of compound 5a were used in a kinase inhibition assay over various kinase groups and families in the presence of 10 µM ATP using HotSpotSM technology. To get a comprehensive picture of the inhibitory activities of the tested compound (5a) against the kinase panel, data are illustrated in Table 1. […] Compound 5a was also able to suppress the kinase activity of the epidermal growth factor receptor (EGFR), platelet-derived growth factor receptor-alpha (PDGFRα), and cyclin-dependent kinase 2 (CDK2) with modest inhibition values of 26.99 ± 0.9, 24.0 ± 0.4, and 20.1 ± 0.1%, respectively. […] Several studies have confirmed direct relationships between the most affected kinases (FMS, LCK, LYN, and DAPK1) and different human disorders including cancer.
(§3) 5. Protocol of Kinase assay
(§4) Kinases inhibitory activities were assessed by the HotSpot assay platform, which contained specific kinase/substrate pairs along with required cofactors. Base reaction buffer: 20 mM Hepes (pH 7.5), 10 mM MgCl2, 1 mM EGTA, 0.02% Brij35, 0.02 mg/ml BSA, 0.1 mM Na3VO4, 2 mM DTT, 1% DMSO. Testing compounds were dissolved in 100% DMSO to specific concentration. The serial dilution was conducted by Integra Viaflo Assist in DMSO. The reaction mixture containing the examined compound and 33P-ATP was incubated at room temperature for 2h and radioactivity was detected by filter-binding method. Kinase activity data were expressed as the percent remaining kinase activity in test samples compared to vehicle (dimethyl sulfoxide) reactions. IC50 values and curve fits were obtained using Prism (GraphPad Software).

The next data set concerns the target T2, CDK2/cyclin A (Homo sapiens, UniProt P24941).
T2 construct: purchased Reaction Biology Corp
Described as above. The following applies: single dose of 10 µM; 10 µM ATP as printed; read-out: Percent Inhibition, CDK2/cyclin A. It is filed as biochemical. How it is done:
as §1, §2, §3, §4
(§5) 6. Biology raw data for IC50 determination
(§6) Paper ID Cpd ID NSC Number

A further data set deals with T3, FLT1/VEGFR1 (Homo sapiens, UniProt P17948).
T3 construct: purchased Reaction Biology Corp
The data set is described as above. It counts as biochemical. The settings on record: single dose of 10 µM; 10 µM ATP as printed; read-out: Percent Inhibition, FLT1/VEGFR1. How it is done: as §1, §2, §3, §4, §5, §6

A further data set deals with T4, KDR/VEGFR2 (Homo sapiens, UniProt P35968).
T4 construct: purchased Reaction Biology Corp
The data set is described as above. It counts as biochemical. The settings on record: single dose of 10 µM; 10 µM ATP as printed; read-out: Percent Inhibition, KDR/VEGFR2. How it is done:
as §1, §2, §3, §4, §5, §6

In another data set the target is T5, PAK1 (Homo sapiens, UniProt Q13153).
T5 construct: purchased Reaction Biology Corp
The data set is described as above. It counts as biochemical. The following applies: single dose of 10 µM; read-out: Percent Inhibition, PAK1. As to the method: as §1, §2, §3, §4, §5, §6

The next data set concerns the target T6, PDGFRα (Homo sapiens, UniProt P16234).
T6 construct: purchased Reaction Biology Corp
Described as above. It counts as biochemical. The following applies: single dose of 10 µM; 10 µM ATP as printed; read-out: Percent Inhibition, PDGFRα. As to the method:
as §1, §2, §3, §4, §5, §6

Another data set deals with T7, c-MET (Homo sapiens, UniProt P08581).
T7 construct: purchased Reaction Biology Corp
The data set is described as above. The following applies: single dose of 10 µM; 10 µM ATP as printed; read-out: Percent Inhibition, c-MET. It is filed as biochemical. As to the method: as §1, §2, §3, §4, §5, §6

Another data set relates to 786-0. The experiment in a line: NCI growth inhibition (SRB) assay. It is filed as cell-based. The settings on record: Homo sapiens, 786-0, Renal Cancer, single dose 10 µM, 48 h, read-out: Percent Growth Inhibition (GI). An outline of the steps:
(§7)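 SRB-based viability measured after 48 h treatment, per NCI protocol.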

For another data set, the system named is A498. The experiment in a line: NCI growth inhibition (SRB) assay. The settings on record: Homo sapiens, A498, Renal Cancer, single dose 10 µM, 48 h, read-out: Percent Growth Inhibition (GI). It is filed as cell-based. An outline of the steps:
as §7

Another data set deals with ACHN. The experiment in a line: NCI growth inhibition (SRB) assay. It is filed as cell-based. The settings on record: Homo sapiens, Renal Cancer, single dose 10 µM, 48 h, read-out: Percent Growth Inhibition (GI). An outline of the steps: as §7
The subject of a further data set is CCRF-CEM. The experiment in a line: NCI growth inhibition (SRB) assay. It is filed as cell-based. The settings on record: Homo sapiens, Leukemia, single dose 10 µM, 48 h, read-out: Percent Growth Inhibition (GI). An outline of the steps:
as §7

Another data set has as its system COLO 205. The data set is described as follows: NCI growth inhibition (SRB) assay. It is filed as cell-based. The following applies: Homo sapiens, COLO 205, Colon Cancer, single dose 10 µM, 48 h, read-out: Percent Growth Inhibition (GI). An outline of the steps: as §7
A further data set has as its system HOP-92. The data set is described as follows: NCI growth inhibition (SRB) assay. The following applies: Homo sapiens, HOP-92, Non-Small Cell Lung Cancer, single dose 10 µM, 48 h, read-out: Percent Growth Inhibition (GI). It is filed as cell-based. An outline of the steps: as §7
In the next data set the test system is IGROV1. The experiment in a line: NCI growth inhibition (SRB) assay. It is filed as cell-based. The following applies: Homo sapiens, IGROV-1, IGROV1, Ovarian Cancer, single dose 10 µM, 48 h, read-out: Percent Growth Inhibition (GI). An outline of the steps:
as §7

The test system of the next data set is K-562. The data set is described as follows: NCI growth inhibition (SRB) assay. The following applies: Homo sapiens, K562, K-562, Leukemia, single dose 10 µM, 48 h, read-out: Percent Growth Inhibition (GI). It counts as cell-based. An outline of the steps: as §7
A further data set deals with KM12. The experiment in a line: NCI growth inhibition (SRB) assay. It is filed as cell-based. The following applies: Homo sapiens, KM12, Colon Cancer, single dose 10 µM, 48 h, read-out: Percent Growth Inhibition (GI). An outline of the steps:
as §7

A further data set relates to SR. The experiment in a line: NCI growth inhibition (SRB) assay. It counts as cell-based. The following applies: Homo sapiens, Leukemia, single dose 10 µM, 48 h, read-out: Percent Growth Inhibition (GI). An outline of the steps: as §7
The next data set deals with T-47D. The data set is described as follows: NCI growth inhibition (SRB) assay. It is filed as cell-based. The settings on record: Homo sapiens, T47D, Breast Cancer, single dose 10 µM, 48 h, read-out: Percent Growth Inhibition (GI). An outline of the steps: as §7

T6 sequence (P16234 24-1089): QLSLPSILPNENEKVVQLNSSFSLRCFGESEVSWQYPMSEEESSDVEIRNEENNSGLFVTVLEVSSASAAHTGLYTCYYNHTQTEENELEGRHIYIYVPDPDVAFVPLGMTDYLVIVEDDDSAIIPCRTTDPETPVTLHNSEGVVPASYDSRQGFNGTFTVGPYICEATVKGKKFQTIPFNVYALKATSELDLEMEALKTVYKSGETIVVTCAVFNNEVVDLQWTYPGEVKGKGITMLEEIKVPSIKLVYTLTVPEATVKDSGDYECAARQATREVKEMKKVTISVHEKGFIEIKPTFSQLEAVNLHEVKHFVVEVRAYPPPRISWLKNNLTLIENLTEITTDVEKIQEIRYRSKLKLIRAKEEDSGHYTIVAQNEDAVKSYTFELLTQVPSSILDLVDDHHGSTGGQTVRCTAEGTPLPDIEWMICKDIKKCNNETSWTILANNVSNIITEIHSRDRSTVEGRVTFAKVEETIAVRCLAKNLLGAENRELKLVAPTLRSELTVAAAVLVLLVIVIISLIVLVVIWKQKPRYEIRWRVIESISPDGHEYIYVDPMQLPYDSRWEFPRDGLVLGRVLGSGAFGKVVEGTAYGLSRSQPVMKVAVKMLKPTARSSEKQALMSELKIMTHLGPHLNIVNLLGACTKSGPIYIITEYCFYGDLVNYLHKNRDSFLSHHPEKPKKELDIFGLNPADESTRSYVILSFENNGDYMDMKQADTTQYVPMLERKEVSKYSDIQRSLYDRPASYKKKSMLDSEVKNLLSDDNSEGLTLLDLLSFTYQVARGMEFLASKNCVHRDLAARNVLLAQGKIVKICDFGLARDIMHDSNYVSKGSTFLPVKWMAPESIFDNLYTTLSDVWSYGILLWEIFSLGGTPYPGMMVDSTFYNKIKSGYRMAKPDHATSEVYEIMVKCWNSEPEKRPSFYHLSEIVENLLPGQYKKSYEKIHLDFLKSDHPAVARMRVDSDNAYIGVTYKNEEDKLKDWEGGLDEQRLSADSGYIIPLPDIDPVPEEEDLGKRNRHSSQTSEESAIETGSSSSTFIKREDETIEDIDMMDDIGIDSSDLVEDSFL
T3 sequence (P17948 27-1338): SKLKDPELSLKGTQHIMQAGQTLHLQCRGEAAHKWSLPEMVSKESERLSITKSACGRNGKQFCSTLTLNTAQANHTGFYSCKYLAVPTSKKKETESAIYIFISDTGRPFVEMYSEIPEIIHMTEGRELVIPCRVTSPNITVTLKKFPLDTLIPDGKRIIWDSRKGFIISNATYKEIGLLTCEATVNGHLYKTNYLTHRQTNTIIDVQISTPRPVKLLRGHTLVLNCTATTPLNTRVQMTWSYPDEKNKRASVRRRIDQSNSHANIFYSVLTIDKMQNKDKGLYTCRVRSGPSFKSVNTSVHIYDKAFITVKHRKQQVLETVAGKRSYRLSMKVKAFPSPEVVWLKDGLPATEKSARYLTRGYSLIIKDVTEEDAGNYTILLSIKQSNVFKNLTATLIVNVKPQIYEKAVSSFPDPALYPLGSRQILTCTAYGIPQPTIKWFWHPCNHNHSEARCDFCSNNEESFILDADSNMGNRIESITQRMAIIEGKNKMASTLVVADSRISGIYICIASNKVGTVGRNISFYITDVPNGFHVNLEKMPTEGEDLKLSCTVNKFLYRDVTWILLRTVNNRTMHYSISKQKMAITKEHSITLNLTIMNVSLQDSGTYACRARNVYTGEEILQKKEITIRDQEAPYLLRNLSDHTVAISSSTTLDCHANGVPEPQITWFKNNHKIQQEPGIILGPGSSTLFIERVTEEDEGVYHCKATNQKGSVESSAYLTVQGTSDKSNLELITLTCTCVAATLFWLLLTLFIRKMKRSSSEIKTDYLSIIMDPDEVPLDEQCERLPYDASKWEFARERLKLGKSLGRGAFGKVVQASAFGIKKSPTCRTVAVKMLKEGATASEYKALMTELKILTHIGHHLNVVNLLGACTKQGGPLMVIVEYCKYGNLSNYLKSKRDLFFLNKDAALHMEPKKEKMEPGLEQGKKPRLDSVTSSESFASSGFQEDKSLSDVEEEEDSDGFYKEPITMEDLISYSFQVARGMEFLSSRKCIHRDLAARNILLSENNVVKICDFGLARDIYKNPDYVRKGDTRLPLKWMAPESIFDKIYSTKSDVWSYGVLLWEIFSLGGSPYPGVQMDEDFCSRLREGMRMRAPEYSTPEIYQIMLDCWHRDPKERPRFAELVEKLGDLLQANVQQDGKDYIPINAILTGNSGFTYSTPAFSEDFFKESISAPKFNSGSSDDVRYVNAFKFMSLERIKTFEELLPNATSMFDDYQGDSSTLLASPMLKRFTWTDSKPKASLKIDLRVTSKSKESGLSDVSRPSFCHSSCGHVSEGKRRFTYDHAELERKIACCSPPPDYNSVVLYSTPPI
T1 sequence (P07333 20-972): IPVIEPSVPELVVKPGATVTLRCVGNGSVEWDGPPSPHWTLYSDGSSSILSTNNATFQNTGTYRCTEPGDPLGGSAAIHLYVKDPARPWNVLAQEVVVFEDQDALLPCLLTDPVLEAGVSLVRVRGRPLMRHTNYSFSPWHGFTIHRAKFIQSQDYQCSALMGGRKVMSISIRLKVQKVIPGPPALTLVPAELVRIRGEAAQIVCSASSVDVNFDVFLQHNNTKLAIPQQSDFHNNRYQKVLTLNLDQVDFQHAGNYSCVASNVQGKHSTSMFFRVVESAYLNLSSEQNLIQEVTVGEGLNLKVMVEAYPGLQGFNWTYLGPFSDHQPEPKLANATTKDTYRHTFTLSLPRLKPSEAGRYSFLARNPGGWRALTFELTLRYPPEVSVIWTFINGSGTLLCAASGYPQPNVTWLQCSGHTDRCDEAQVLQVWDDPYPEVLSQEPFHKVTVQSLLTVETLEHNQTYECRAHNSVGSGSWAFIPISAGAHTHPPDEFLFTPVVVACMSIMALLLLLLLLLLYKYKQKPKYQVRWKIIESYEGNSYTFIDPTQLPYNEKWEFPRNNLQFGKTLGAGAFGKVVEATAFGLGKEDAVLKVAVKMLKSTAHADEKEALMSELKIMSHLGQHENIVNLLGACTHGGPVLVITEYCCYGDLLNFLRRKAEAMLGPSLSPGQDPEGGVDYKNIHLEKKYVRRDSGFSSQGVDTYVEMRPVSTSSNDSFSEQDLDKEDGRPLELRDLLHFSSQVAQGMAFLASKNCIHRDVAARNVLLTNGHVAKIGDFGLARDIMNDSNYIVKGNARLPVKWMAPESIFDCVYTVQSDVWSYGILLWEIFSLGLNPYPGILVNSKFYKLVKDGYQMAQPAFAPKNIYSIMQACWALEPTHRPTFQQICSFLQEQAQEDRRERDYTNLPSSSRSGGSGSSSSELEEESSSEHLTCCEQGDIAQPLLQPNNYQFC
T4 sequence (P35968 20-1356): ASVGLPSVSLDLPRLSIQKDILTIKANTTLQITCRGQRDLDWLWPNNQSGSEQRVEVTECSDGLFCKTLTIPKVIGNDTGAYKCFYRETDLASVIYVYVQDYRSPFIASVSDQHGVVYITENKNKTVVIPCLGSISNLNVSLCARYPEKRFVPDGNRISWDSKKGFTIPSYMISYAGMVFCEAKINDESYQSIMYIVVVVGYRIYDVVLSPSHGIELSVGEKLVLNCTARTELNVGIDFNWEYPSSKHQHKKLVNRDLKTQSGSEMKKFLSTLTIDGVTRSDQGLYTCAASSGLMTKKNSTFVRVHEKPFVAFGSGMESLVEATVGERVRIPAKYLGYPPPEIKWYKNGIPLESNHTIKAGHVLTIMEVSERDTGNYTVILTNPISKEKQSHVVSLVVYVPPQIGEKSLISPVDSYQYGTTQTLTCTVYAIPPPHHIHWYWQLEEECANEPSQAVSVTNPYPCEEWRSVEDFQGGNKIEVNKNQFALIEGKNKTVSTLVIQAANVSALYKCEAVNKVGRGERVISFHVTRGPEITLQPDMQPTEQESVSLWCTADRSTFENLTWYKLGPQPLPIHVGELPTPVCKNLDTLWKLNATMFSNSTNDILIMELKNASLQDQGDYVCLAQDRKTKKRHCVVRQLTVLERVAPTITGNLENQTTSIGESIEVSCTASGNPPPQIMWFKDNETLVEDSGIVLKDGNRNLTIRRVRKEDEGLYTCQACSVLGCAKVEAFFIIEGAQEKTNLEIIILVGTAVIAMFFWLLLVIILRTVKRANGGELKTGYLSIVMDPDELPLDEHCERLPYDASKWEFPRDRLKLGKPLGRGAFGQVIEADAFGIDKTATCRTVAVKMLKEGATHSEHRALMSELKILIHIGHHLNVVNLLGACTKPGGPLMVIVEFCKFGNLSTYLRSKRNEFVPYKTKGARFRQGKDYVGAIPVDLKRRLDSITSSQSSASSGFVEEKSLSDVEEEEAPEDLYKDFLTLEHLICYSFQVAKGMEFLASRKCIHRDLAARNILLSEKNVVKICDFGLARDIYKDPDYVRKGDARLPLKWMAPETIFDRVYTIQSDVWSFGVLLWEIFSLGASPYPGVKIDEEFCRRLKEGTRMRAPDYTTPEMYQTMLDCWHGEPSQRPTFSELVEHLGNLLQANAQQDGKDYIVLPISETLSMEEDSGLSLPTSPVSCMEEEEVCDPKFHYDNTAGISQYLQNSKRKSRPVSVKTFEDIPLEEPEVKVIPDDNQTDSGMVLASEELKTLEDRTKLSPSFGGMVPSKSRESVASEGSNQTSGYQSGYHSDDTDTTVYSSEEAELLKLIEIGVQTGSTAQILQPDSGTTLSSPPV

`COc1ccc(Oc2nc(Nc3ccc(N4CCOCC4)cc3)ncc2NC(=O)c2ccc3c(c2)OCO3)cc1` [5a, N-(4-(4-Methoxyphenoxy)-2-((4-morpholinophenyl)amino)pyrimidin-5-yl)benzo[d][1,3]dioxole-5-carboxamide] displayed a melting point of 205.9 to 206.9 °C. Besides, the inhibition at 10 µM at FMS was 82.5 ± 0.6%. The inhibition at 10 µM at CDK2/cyclin A worked out at 20.1 ± 0.1%. Besides, the inhibition at 10 µM on FLT1/VEGFR1 was -2.4 ± 1.7%. Besides, the inhibition at 10 µM at KDR/VEGFR2 came out at 7.9 ± 1.4%. The inhibition at 10 µM on PAK1 is -29.1 ± 3.4%. At PDGFRα, the inhibition at 10 µM came to 24 ± 0.4%. At c-MET, the inhibition at 10 µM was determined as 12 ± 13.7%. The inhibition at 10 µM with 786-0 turned out to be 25.3%. Besides, in the data set with A498, the inhibition at 10 µM worked out at 22.4%. Moreover, the inhibition at 10 µM with ACHN was found to be 8.91%. In the data set on CCRF-CEM, the inhibition at 10 µM amounted to 14.5%. Further, in the data set with COLO 205, the inhibition at 10 µM was 1.75%. The inhibition at 10 µM with HOP-92 was found to be 6.16%. Moreover, the inhibition at 10 µM with IGROV1 worked out at 5.92%. The inhibition at 10 µM with K-562 was 23.4%. Besides, the inhibition at 10 µM in the data set on KM12 was 12.7%. Besides, the inhibition at 10 µM with SR turned out to be 37.1%. Further, the inhibition at 10 µM in the data set with T-47D was determined as 6.78%.

One may read the melting point as the temperature, or range, at which the solid turns liquid.
